Measurements reported in US11339171B2, “MDM2 inhibitors” (Gan & Lee Pharmaceuticals, priority 2017, dated 2022).

What was measured:
[1] = target: T1, MDM2 (Homo sapiens, UniProt Q00987); assay: Inhibition test of MDM2-P53 (GST-MDM2, Biotin-P53, Anti-GST-Tb, SA-XL665); format: binding; settings: for inhibitory effect on MDM2 compared with positive control compound HDM201: labels are Example numbers, the compounds with S-configuration are meant
T1 construct: made in house
How it was run: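 Compounds, serially diluted 5-fold (twelve concentrations), were shaken for 90 min at 25° C with a mix of GST-MDM2 (4 nM final), Biotin-P53, anti-GST-Tb and SA-XL665. Buffer: 1×PBS, 0.1% BSA, 5 mM DTT, 1 mM AEBSF; signal read on a microplate reader.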

[2] = system: human osteosarcoma cell line SJSA-1; assay: Inhibition of proliferation of human osteosarcoma cell line SJSA-1 (DAPI staining, In Cell Analyzer); settings: for IC50: Homo sapiens, SJSA-1, 72 h, read-out: IC50 (nM), inhibitory activity on proliferation of human osteosarcoma cell line SJSA-1, SJSA-1, incubated 72 h; for inhibitory effect on human osteosarcoma cell line SJSA-1 compared with positive control compound HDM201: labels are Example numbers, the compounds with S-configuration are meant

T1 sequence (Q00987 whole entry): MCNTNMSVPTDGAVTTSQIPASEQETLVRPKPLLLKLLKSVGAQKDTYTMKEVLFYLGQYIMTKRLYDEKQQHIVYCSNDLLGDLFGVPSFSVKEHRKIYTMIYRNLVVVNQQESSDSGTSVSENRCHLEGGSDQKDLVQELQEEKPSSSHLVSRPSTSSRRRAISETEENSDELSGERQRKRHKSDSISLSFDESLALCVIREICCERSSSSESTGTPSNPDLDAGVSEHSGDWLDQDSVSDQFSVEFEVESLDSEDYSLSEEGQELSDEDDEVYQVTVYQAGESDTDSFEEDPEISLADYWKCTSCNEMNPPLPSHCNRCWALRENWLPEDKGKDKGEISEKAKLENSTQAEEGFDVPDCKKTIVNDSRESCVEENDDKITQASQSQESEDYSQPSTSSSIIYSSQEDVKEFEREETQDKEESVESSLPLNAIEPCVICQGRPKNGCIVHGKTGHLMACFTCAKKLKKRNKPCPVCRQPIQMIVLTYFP

Row | Compound | IC50 [1] [nM] | IC50 [2] [nM] | inhibitory effect on MDM2 compared with positive control compound HDM201 [1] | inhibitory effect on human osteosarcoma cell line SJSA-1 compared with positive control compound HDM201 [2]
1 | COc1ccc(C(=O)N(C)C)cc1-c1nc2c(n1C(C)C)[C@@]1(C(=O)Nc3cc(Cl)ccc31)N(c1cc(Cl)ccc1C)C2=O [Example S-22, (S)-3-(6-chloro-5′-(5-chloro-2-methylphenyl)-3′-isopropyl-2,6′-dioxo-5′,6′-dihydro-3′H-spiro[dihydroindole-3,4′-pyrrolo[3,4-d]imidazole]-2′-yl)-4-methoxy-N,N-dimethylbenzamide] | 1.1 | 7.46 |  | 
2 | COc1cc(C(C)C)ncc1-c1nc2c(n1C(C)C)C1(C(=O)Nc3cc(Cl)ccc31)N(c1cc(Cl)ccc1C)C2=O (stereo not drawn) [Example 164, 6-chloro-5′-(5-chloro-2-methylphenyl)-3′-isopropyl-2′-(6-isopropyl-4-methoxypyridin-3-yl)-3′H-spiro[dihydroindole-3,4′-pyrrolo[3,4-d]imidazole]-2,6′(5′H)-dione] |  |  | better | better
3 | COc1ccc(C)cc1-c1nc2c(n1C(C)C)[C@@]1(C(=O)Nc3cc(Cl)ccc31)N(c1cc(Cl)ccc1C)C2=O [Example S-62, (S)-6-chloro-5′-(5-chloro-2-methylphenyl)-3′-isopropyl-2′-(2-methoxy-5-methylphenyl)-3′H-spiro[dihydroindole-3,4′-pyrrolo[3,4-d]imidazole]-2,6′(5′H)-dione] | 1.61 | 10.5 |  | 
4 | COc1cc(OC)c(-c2nc3c(n2C(C)C)[C@]2(C(=O)Nc4cc(Cl)ccc42)N(c2cc(Cl)ccc2C)C3=O)cc1C [Example R-83, (R)-6-chloro-5′-(5-chloro-2-methylphenyl)-2′-(2,4-dimethoxy-5-methylphenyl)-3′-isopropyl-3′H-spiro[dihydroindole-3,4′-pyrrolo[3,4-d]imidazole]-2,6′(5′H)-dione] | 87.6 | 589 |  | 
5 | COc1ncc(-c2nc3c(n2C(C)C)[C@]2(C(=O)Nc4cc(Cl)ccc42)N(c2ccc(C)c(Cl)c2)C3=O)c(OC)n1 [Example R-20, (R)-6-chloro-5′-(3-chloro-4-methylphenyl)-2′-(2,4-dimethoxypyrimidin-5-yl)-3′-isopropyl-3′H-spiro[dihydroindole-3,4′-pyrrolo[3,4-d]imidazole]-2,6′(5′H)-dione] | 256 | 4010 |  | 
6 | COc1nc(OCCF)ncc1-c1nc2c(n1C(C)C)[C@@]1(C(=O)Nc3cc(Cl)ccc31)N(c1cccc(Cl)c1)C2=O [Example S-171, (S)-6-chloro-5′-(3-chlorophenyl)-2′-(2-(2-fluoroethoxy)-4-methoxypyrimidin-5-yl)-3′-isopropyl-3′H-spiro[dihydroindole-3,4′-pyrrolo[3,4-d]imidazole]-2,6′(5′H)-dione] | 2.86 | 379 |  | 
7 | CCOc1ncc(-c2nc3c(n2C(C)C)[C@@]2(C(=O)Nc4cc(Cl)ccc42)N(c2cc(Cl)ccc2C)C3=O)c(OC)n1 [Example S-127, (S)-6-chloro-5′-(5-chloro-2-methylphenyl)-2′-(2-ethoxy-4-methoxypyrimidin-5-yl)-3′-isopropyl-3′H-spiro[dihydroindole-3,4′-pyrrolo[3,4-d]imidazole]-2,6′(5′H)-dione] | 2.76 | 83.2 |  | 
8 | COc1cc(N(C)C)ncc1-c1nc2c(n1C(C)C)[C@]1(C(=O)Nc3cc(Cl)ccc31)N(c1cc(Cl)ccc1C)C2=O [Example R-111, (R)-6-chloro-5′-(5-chloro-2-methylphenyl)-2′-(6-(dimethylamino)-4-methoxypyridin-3-yl)-3′-isopropyl-3′H-spiro[dihydroindole-3,4′-pyrrolo[3,4-d]imidazole]-2,6′ (5′H)-dione] | 110 | 561 |  | 
9 | CCOc1cc(OC)c(-c2nc3c(n2C(C)C)[C@@]2(C(=O)Nc4cc(Cl)ccc42)N(c2cccc(Cl)c2)C3=O)cn1 [Example S-102, (S)-6-chloro-5′-(3-chlorophenyl)-2′-(6-ethoxy-4-methoxypyridin-3-yl)-3′-isopropyl-3′H-spiro[dihydroindole-3,4′-pyrrolo[3,4-d]imidazole]-2,6′(5′H)-dione] | 2.01 | 57.4 |  | 
10 | COc1cc(N(C)C)ccc1-c1nc2c(n1C(C)C)[C@]1(C(=O)Nc3cc(Cl)ccc31)N(c1cccc(Cl)c1)C2=O [Example R-104, (R)-6-chloro-5′-(3-chlorophenyl)-2′-(4-(dimethylamino)-2-methoxyphenyl)-3′-isopropyl-3′H-spiro[dihydroindole-3,4′-pyrrolo[3,4-d]imidazole]-2,6′(5′H)-dione] | 146 | 6890 |  | 
11 | COc1ccc(-c2nc3c(n2C(C)C)[C@@]2(C(=O)Nc4cc(Cl)ccc42)N(c2cc(Cl)cn(C)c2=O)C3=O)c(OC)c1 [Example S-39, (S)-6-chloro-5′-(5-chloro-1-methyl-2-oxo-1,2-dihydropyridin-3-yl)-2′-(2,4-dimethoxyphenyl)-3′-isopropyl-3′H-spiro[dihydroindole-3,4′-pyrrolo[3,4-d]imidazole]-2,6′(5′H)-dione] | 3.93 | 1180 |  | 
12 | COc1cc(OC(F)(F)F)ccc1-c1nc2c(n1C(C)C)[C@@]1(C(=O)Nc3cc(Cl)ccc31)N(c1cccc(Cl)c1)C2=O [Example S-120, (S)-6-chloro-5′-(3-chlorophenyl)-3′-isopropyl-2′-(2-methoxy-4-(trifluoromethoxy)phenyl)-3′H-spiro[dihydroindole-3,4′-pyrrolo[3,4-d]imidazole]-2,6′(5′H)-dione] | 9.01 | 364 |  | 
13 | COc1cc(N(C)C)ccc1-c1nc2c(n1C(C)C)[C@@]1(C(=O)Nc3cc(Cl)ccc31)N(c1cccc(Cl)c1)C2=O [Example S-104, (S)-6-chloro-5′-(3-chlorophenyl)-2′-(4-(dimethylamino)-2-methoxyphenyl)-3′-isopropyl-3′H-spiro[dihydroindole-3,4′-pyrrolo[3,4-d]imidazole]-2,6′(5′H)-dione] | 2.26 | 266 |  | 
14 | COc1ccc(C(N)=O)cc1-c1nc2c(n1C(C)C)[C@]1(C(=O)Nc3cc(Cl)ccc31)N(c1cc(Cl)ccc1C)C2=O [Example R-29, (R)-3-(6-chloro-5′-(5-chloro-2-methylphenyl)-3′-isopropyl-2,6′-dioxo-5′,6′-dihydro-3′H-spiro[dihydroindole-3,4′-pyrrolo[3,4-d]imidazole]-2′-yl)-4-methoxybenzamide] | 93.6 | 10900 |  | 
15 | COc1cc(OC(C)C)ncc1-c1nc2c(n1C(C)C)[C@@]1(C(=O)Nc3cc(Cl)ccc31)N(c1cccc(Cl)c1)C2=O [Example S-95, (S)-6-chloro-5′-(3-chlorophenyl)-2′-(6-isopropoxy-4-methoxypyridin-3-yl)-3′-isopropyl-3′H-spiro[dihydroindole-3,4′-pyrrolo[3,4-d]imidazole]-2,6′(5′H)-dione] | 1.92 | 49.5 |  | 
16 | COc1ccc(-c2nc3c(n2C(C)C)C2(C(=O)Nc4cc(Cl)ccc42)N(c2cc(Cl)cnc2C)C3=O)c(OC)c1 (stereo not drawn) [Example 61, 6-chloro-5′-(5-chloro-2-methylpyridin-3-yl)-2′-(2,4-dimethoxyphenyl)-3′-isopropyl-3′H-spiro[dihydroindole-3,4′-pyrrolo[3,4-d]imidazole]-2,6′(5′H)-dione] |  |  | better | better
17 | COc1ncc(-c2nc3c(n2C(C)C)C2(C(=O)Nc4cc(Cl)ccc42)N(c2cc(Cl)cnc2C)C3=O)c(OC)n1 (stereo not drawn) [Example 42, 6-chloro-5′-(5-chloro-2-methylpyridin-3-yl)-2′-(2,4-dimethoxypyrimidin-5-yl)-3′-isopropyl-3′H-spiro[dihydroindole-3,4′-pyrrolo[3,4-d]imidazole]-2,6′(5′H)-dione] |  |  | better | better
18 | COc1cc(N)c(F)cc1-c1nc2c(n1C(C)C)[C@@]1(C(=O)Nc3cc(Cl)ccc31)N(c1cc(Cl)ccc1C)C2=O [Example S-75, (S)-2′-(4-amino-5-fluoro-2-methoxyphenyl)-6-chloro-5′-(5-chloro-2-methylphenyl)-3′-isopropyl-3′H-spiro[dihydroindole-3,4′-pyrrolo[3,4-d]imidazole]-2,6′(5′H)-dione] | 0.97 | 9.84 |  | 
19 | COc1cc(C)ncc1-c1nc2c(n1C(C)C)C1(C(=O)Nc3cc(Cl)ccc31)N(c1cc(Cl)ccc1C)C2=O (stereo not drawn) [Example 154, 6-chloro-5′-(5-chloro-2-methylphenyl)-3′-isopropyl-2′-(4-methoxy-6-methylpyridin-3-yl)-3′H-spiro[dihydroindole-3,4′-pyrrolo[3,4-d]imidazole]-2,6′(5′H)-dione] |  |  | better | better
20 | COc1cc(C2CC2)ccc1-c1nc2c(n1C(C)C)[C@@]1(C(=O)Nc3cc(Cl)ccc31)N(c1cc(Cl)ccc1C)C2=O [Example S-86, (S)-6-chloro-5′-(5-chloro-2-methylphenyl)-2′-(4-cyclopropyl-2-methoxyphenyl)-3′-isopropyl-3′H-spiro[dihydroindole-3,4′-pyrrolo[3,4-d]imidazole]-2,6′(5′H)-dione] | 2.59 | 21.2 |  | 
21 | COc1cc(OC)c(-c2nc3c(n2C(C)C)[C@]2(C(=O)Nc4cc(Cl)ccc42)N(c2cc(Cl)ccc2C)C3=O)cn1 [Example R-11, (R)-6-chloro-5′-(5-chloro-2-methylphenyl)-2′-(4,6-dimethoxypyridin-3-yl)-3′-isopropyl-3′H-spiro[dihydroindole-3,4′-pyrrolo[3,4-d]imidazole]-2,6′(5′H)-dione] | 257 | 1510 |  | 
